In one test the target is T1, AKT1 WT (Homo sapiens, UniProt P31749).
T1 construct: expressed in transfected cells; host or cells: HEK293
In words: Live cell AKT1 WT target engagement by NanoBRET competitive probe displacement in HEK293 cells. It is filed as binding. The settings on record: 2 h at 37° C., read-out: AKT1 WT IC50. For orientation: In BRET a luciferase serves as donor, and the signal depends on an acceptor being close.

Another test deals with T2, AKT2 (Homo sapiens, UniProt P31751).
T2 construct: expressed in transfected cells; host or cells: HEK293
T2 sequence (P31751 whole entry): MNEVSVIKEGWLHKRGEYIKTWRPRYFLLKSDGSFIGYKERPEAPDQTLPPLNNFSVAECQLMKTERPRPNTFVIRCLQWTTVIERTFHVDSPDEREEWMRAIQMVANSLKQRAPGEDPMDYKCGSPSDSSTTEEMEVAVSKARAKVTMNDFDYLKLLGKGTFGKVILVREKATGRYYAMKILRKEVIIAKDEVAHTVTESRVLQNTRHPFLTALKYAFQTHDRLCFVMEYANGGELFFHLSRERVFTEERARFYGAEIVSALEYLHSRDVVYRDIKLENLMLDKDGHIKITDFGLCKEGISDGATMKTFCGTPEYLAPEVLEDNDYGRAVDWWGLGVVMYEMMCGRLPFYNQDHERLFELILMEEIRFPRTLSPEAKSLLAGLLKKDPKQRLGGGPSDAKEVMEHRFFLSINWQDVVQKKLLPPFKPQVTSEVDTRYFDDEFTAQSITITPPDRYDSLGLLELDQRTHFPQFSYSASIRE
The test can be described thus: Live cell AKT2 target engagement by NanoBRET competitive probe displacement in HEK293 cells. The conditions noted are these: 2 h at 37° C., read-out: AKT2 IC50. In kind it is binding.

The mark [1] stands for this setting: NanoBRET competitive probe displacement, live HEK293 cells.
The mark [2] stands for this setting: NanoBRET live cell target engagement, HEK293 cells.

Read-outs that look alike come from different tables or passages of the source.

A word on the IC50: it is the concentration that gives 50% inhibition.

T1 sequence (P31749 whole entry): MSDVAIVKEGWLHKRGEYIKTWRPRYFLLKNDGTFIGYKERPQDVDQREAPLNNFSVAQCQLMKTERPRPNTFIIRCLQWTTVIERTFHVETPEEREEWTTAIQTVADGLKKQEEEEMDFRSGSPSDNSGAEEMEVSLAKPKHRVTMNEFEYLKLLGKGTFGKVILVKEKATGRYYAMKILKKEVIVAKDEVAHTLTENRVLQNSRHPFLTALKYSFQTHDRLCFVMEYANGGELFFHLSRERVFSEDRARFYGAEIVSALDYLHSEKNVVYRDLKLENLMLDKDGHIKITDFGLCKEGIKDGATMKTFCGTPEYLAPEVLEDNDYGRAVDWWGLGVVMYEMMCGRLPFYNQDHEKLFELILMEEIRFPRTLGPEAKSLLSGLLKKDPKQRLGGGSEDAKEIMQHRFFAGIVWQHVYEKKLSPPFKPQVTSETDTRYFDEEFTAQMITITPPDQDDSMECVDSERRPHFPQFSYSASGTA

Turning to `COc1ccn(-c2ccc3nc(-c4cccnc4N)n(-c4ccc5c(c4)CC[C@@H]5NC4[C@@H]5COC[C@H]4CN(C(=O)C4CC4)C5)c3n2)n1` (single isomer, unassigned) [Compound 524], the figures for the IC50 at AKT1 WT (setting [1]) and on AKT2 (setting [1]) were 48.4 nM and 1740 nM, respectively.
Consider `Nc1ncccc1-c1nc2ccc(-n3cccn3)nc2n1-c1ccc2c(c1)CC[C@@H]2NC(=O)c1cc2ncccn2n1` [Compound 176], for which the IC50 at AKT1 WT (setting [2]) was 24.7 nM; on AKT2 (setting [2]), 315 nM.
With `Nc1ncccc1-c1nc2ccc(-n3ccc(OC4CC4)n3)nc2n1-c1ccc2c(c1)CC[C@@H]2NC1CCN(C(=O)C2CC2)CC1` [Compound 497], the results for the IC50 at AKT1 WT (setting [1]) and on AKT2 (setting [1]) were 18.9 nM and 1280 nM, respectively.
Taken in the same sequence, the figures for `CN1CCC(n2ccc(-c3ccc4nc(-c5cccnc5N)n(-c5ccc6c(c5)CC[C@@H]6NC5CCN(C(=O)C6CC6)CC5)c4n3)n2)CC1` [Compound 570] were 47.5 nM and 679 nM.
Regarding `Nc1ncccc1-c1nc2ccc(-n3ccc(OC(F)F)n3)nc2n1-c1ccc2c(c1)CC[C@@H]2NC1[C@@H]2COC[C@H]1CN(C(=O)C1CC1)C2` (stereo partly drawn) [Compound 560], the IC50 was 249 nM at AKT1 WT (setting [1]) and 2520 nM on AKT2 (setting [1]).
As for `CN(C)Cc1cc(C(=O)N[C@H]2CCc3cc(-n4c(-c5cccnc5N)nc5ccc(-n6cccn6)nc54)ccc32)ccn1` [Compound 205], the IC50 on AKT1 WT (setting [2]) came out at 168 nM; on AKT2 (setting [2]), 2340 nM.
For `Cc1ccc(C(C)N[C@H]2CCc3cc(-n4c(-c5cccnc5N)nc5ccc(-n6cccn6)nc54)ccc32)cn1` (stereo partly drawn) [Compound 154], the IC50 stood at 508 nM on AKT1 WT (setting [2]) and 3180 nM on AKT2 (setting [2]).
In the case of `COc1cc(-n2cccn2)nc2c1nc(-c1cccnc1N)n2-c1ccc2c(c1)CC[C@@H]2NC(=O)c1cccnc1C` [Compound 124], the IC50 came to 13.9 nM at AKT1 WT (setting [2]) and 54.8 nM at AKT2 (setting [2]).
As to `Nc1ncccc1-c1nc2ccc(C#CC3CC3)nc2n1-c1ccc2c(c1)CC[C@@H]2NC(=O)c1ccc(F)c(F)c1` [Compound 459], the IC50 at AKT1 WT (setting [1]) was found to be 26.6 nM; at AKT2 (setting [1]) it was 782 nM.
With `CN(C)Cc1cn([C@H]2CCc3cc(-n4c(-c5cccnc5N)nc5ccc(-n6cccn6)nc54)ccc32)nn1` [Compound 218], the IC50 on AKT1 WT (setting [2]) was determined as 643 nM; at AKT2 (setting [2]) it was 4400 nM.
For the compound `Nc1ncccc1-c1nc2ccc(-c3cnccn3)nc2n1-c1ccc2c(c1)CC[C@@H]2NC1CCN(C(=O)C2CC2)CC1` [Compound 556], the IC50 amounted to 124 nM on AKT1 WT (setting [1]) and 1330 nM at AKT2 (setting [1]).
As to `CS(=O)(=O)Nc1ccc(C(=O)N[C@H]2CCc3cc(-n4c(-c5cccnc5N)nc5ccc(-n6cccn6)nc54)ccc32)cn1` [Compound 231], the IC50 at AKT1 WT (setting [2]) turned out to be 504 nM; at AKT2 (setting [2]), 3870 nM.
In the case of `Cn1nc(F)cc1C(=O)N[C@H]1CCc2cc(-n3c(-c4cccnc4N)nc4ccc(-n5cccn5)nc43)ccc21` [Compound 396], the values for the IC50 at AKT1 WT (setting [1]) and at AKT2 (setting [1]) were 14.7 nM and 250 nM, respectively.
Consider `Cc1ncccc1C(=O)N[C@H]1CCc2cc(-n3c(-c4cccnc4N)nc4c(C)cc(-n5cccn5)nc43)ccc21` [Compound 100], for which the IC50 on AKT1 WT (setting [2]) was determined as 17.2 nM; at AKT2 (setting [2]), 24.9 nM.
`Nc1ncccc1-c1nc2ccc(-n3ncc(OC(F)F)n3)nc2n1-c1ccc2c(c1)CC[C@@H]2NC(=O)c1cnc(C(F)F)s1` [Compound 595]: the IC50 on AKT1 WT (setting [1]) came to 15 nM; on AKT2 (setting [1]), 520 nM.
For `Nc1ncccc1-c1nc2ccc(-n3cccn3)nc2n1-c1ccc2c(c1)CC[C@@H]2NC1CCN(C(=O)[C@@H]2CCO2)CC1` [Compound 424] the same measures were 122 nM and 5380 nM.
Taken in the same sequence, the figures for `Nc1ncccc1-c1nc2ccc(-n3cccn3)nc2n1-c1ccc2c(c1)CC[C@@H]2NC1Cc2cccnc2C1` (stereo partly drawn) [Compound 530] were 21.2 nM and 422 nM.
For `Nc1ncccc1-c1nc2ccc(-n3cccn3)nc2n1-c1ccc2c(c1)CC[C@@H]2N(C1CC1)C1CCN(C(=O)C2CC2)CC1` [Compound 557] the same measures were 15.9 nM and 1760 nM.
Consider `Nc1ncccc1-c1nc2ccc(-n3cccn3)nc2n1-c1ccc2c(c1)CC[C@@H]2NC1CCN(C(=O)[C@H]2CCO2)CC1` [Compound 425], for which the IC50 was found to be 109 nM at AKT1 WT (setting [1]) and 3090 nM on AKT2 (setting [1]).
For `Nc1ncccc1-c1nc2ccc(-n3ccc(Oc4ccccn4)n3)nc2n1-c1ccc2c(c1)CC[C@@H]2NC1CCN(C(=O)C2CC2)CC1` [Compound 574] the same measures were 52.4 nM and 2420 nM.
For `COc1nccc2c1CCC2N[C@H]1CCc2cc(-n3c(-c4cccnc4N)nc4ccc(-n5cccn5)nc43)ccc21` (stereo partly drawn) [Compound 509] the same measures were 28.7 nM and 928 nM.
As for `Nc1ncccc1-c1nc2ccc(-n3cccn3)nc2n1-c1ccc2c(c1)CC[C@@H]2NC(=O)c1ccn2nccc2n1` [Compound 306], the IC50 worked out at 34.5 nM on AKT1 WT (setting [2]) and 132 nM at AKT2 (setting [2]).
On to `Cc1csc(-c2ccc3nc(-c4cccnc4N)n(-c4ccc5c(c4)CC[C@@H]5n4ccnn4)c3n2)n1` [Compound 316], for which the IC50 is 16.9 nM on AKT1 WT (setting [2]) and 201 nM on AKT2 (setting [2]).
For `Nc1ncccc1-c1nc2ccc(-c3ccn(C(F)F)n3)nc2n1-c1ccc2c(c1)CC[C@@H]2n1ccnn1` [Compound 315] the same measures were 23.9 nM and 617 nM.
`Nc1ncccc1-c1nc2ccc(-n3cccn3)nc2n1-c1ccc2c(c1)CC[C@@H]2NC1CCc2cc(O)ccc21` (single isomer, unassigned) [Compound 499]: the figures for the IC50 on AKT1 WT (setting [1]) and at AKT2 (setting [1]) were 45.6 nM and 897 nM, respectively.
As for `Cn1c(=O)[nH]c2ccc(C(=O)N[C@H]3CCc4cc(-n5c(-c6cccnc6N)nc6ccc(-n7cccn7)nc65)ccc43)cc21` [Compound 230], the IC50 on AKT1 WT (setting [2]) was determined as 13.6 nM; at AKT2 (setting [2]), 68.2 nM.
For `Cc1nncn1[C@H]1CCc2cc(-n3c(-c4cccnc4N)nc4ccc(-n5cccn5)nc43)ccc21` [Compound 217, (S)-3-(3-(1-(3-methyl-4H-1,2,4-triazol-4-yl)-2,3-dihydro-1H-inden-5-yl)-5-(1H-pyrazol-1-yl)-3H-imidazo[4,5-b]pyridin-2-yl)pyridin-2-amine] the same measures were 38.9 nM and 328 nM.
For `Cc1ncccc1C(=O)N[C@H]1CCc2cc(-n3c(-c4cccnc4N)nc4c(F)cc(-n5cccn5)nc43)ccc21` [Compound 212] the same measures were 57.8 nM and 158 nM.
As to `Nc1ncccc1-c1nc2ccc(-n3cccn3)nc2n1-c1ccc2c(c1)CC[C@@H]2NC(=O)Nc1ccccc1` [Compound 133], the IC50 on AKT1 WT (setting [2]) was 76.2 nM; on AKT2 (setting [2]) it was 1340 nM.
Consider `Cc1ccc(C(=O)N[C@H]2CCc3cc(-n4c(-c5cccnc5N)nc5ccc(-n6cccn6)nc54)ccc32)c(C(F)F)n1` [Compound 167], for which the IC50 at AKT1 WT (setting [2]) turned out to be 40.9 nM; at AKT2 (setting [2]), 830 nM.
Take `Nc1ncccc1-c1nc2ccc(-n3cccn3)nc2n1-c1ccc2c(c1)CC[C@@H]2NC1CCCc2ccncc21` (stereo partly drawn) [Compound 502]: the results for the IC50 at AKT1 WT (setting [1]) and at AKT2 (setting [1]) were 134 nM and 2090 nM, respectively.
Consider `COc1ccn(-c2ccc3nc(-c4cccnc4N)n(-c4ccc5c(c4)CC[C@@H]5NC4CCN(C(=O)C5CC5)CC4F)c3n2)n1` (stereo partly drawn) [Compound 515], for which the IC50 on AKT1 WT (setting [1]) worked out at 12.1 nM; at AKT2 (setting [1]), 452 nM.
`CC(=O)Nc1ccc(C(=O)N[C@H]2CCc3cc(-n4c(-c5cccnc5N)nc5ccc(-n6cccn6)nc54)ccc32)cc1` [Compound 196]: the half-maximal inhibitory concentration (IC50) at AKT1 WT (setting [2]) worked out at 9.31 nM; on AKT2 (setting [2]), 72.4 nM.
`Cc1ccc(CN(C)[C@H]2CCc3cc(-n4c(-c5cccnc5N)nc5ccc(-n6cccn6)nc54)ccc32)cn1` [Compound 168]: the IC50 at AKT1 WT (setting [2]) was 41.1 nM; on AKT2 (setting [2]), 1010 nM.
Taken in the same sequence, the figures for `Cc1cc(C(=O)N[C@H]2CCc3cc(-n4c(-c5cccnc5N)nc5ccc(-n6cccn6)nc54)ccc32)nn1C(F)F` [Compound 166] were 29.9 nM and 687 nM.
Taken in the same sequence, the figures for `Nc1ncccc1-c1nc2ccc(-n3cccn3)nc2n1-c1ccc2c(c1)CC[C@@H]2NC(=O)c1cc2ccccn2n1` [Compound 175] were 13 nM and 79.7 nM.
On to `Nc1ncccc1-c1nc2ccc(-n3cccn3)nc2n1-c1ccc2c(c1)CC(F)C2NC1CCN(C(=O)C2CC2)CC1` (stereo not drawn) [Compound 522], for which the IC50 is 524 nM on AKT1 WT (setting [1]) and > 10000 nM on AKT2 (setting [1]).
As for `Nc1ncccc1-c1nc2c(C(F)F)cc(-n3cccn3)nc2n1-c1ccc2c(c1)CC[C@@H]2NC(=O)c1ccc(C(F)F)nc1` [Compound 177, (S)—N-(5-(2-(2-aminopyridin-3-yl)-7-(difluoromethyl)-5-(1H-pyrazol-1-yl)-3H-imidazo[4,5-b]pyridin-3-yl)-2,3-dihydro-1H-inden-1-yl)-6-(difluoromethyl)nicotinamide], the figures for the IC50 on AKT1 WT (setting [2]) and on AKT2 (setting [2]) were 10.6 nM and 47.2 nM, respectively.
In the case of `Nc1ncccc1-c1nc2ccc(-c3ccn(C4CCOCC4)n3)nc2n1-c1ccc2c(c1)CC[C@@H]2NC1CCN(C(=O)C2CC2)CC1` [Compound 555], the IC50 on AKT1 WT (setting [1]) is 64.4 nM; at AKT2 (setting [1]), 1570 nM.
For `Nc1ncccc1-c1nc2ccc(-n3cccn3)nc2n1-c1ccc2c(c1)CC[C@@H]2NC1CCN(c2cccnc2)C1` (stereo partly drawn) [Compound 472], the IC50 at AKT1 WT (setting [1]) amounted to 18 nM; on AKT2 (setting [1]), 404 nM.
As for `Cn1ccc(C#Cc2ncccc2C(=O)N[C@H]2CCc3cc(-n4c(-c5cccnc5N)nc5ccc(-n6cccn6)nc54)ccc32)n1` [Compound 181], the values for the IC50 at AKT1 WT (setting [2]) and at AKT2 (setting [2]) were 78.4 nM and 3680 nM, respectively.
Turning to `Cc1nccnc1C(=O)N[C@H]1CCc2cc(-n3c(-c4cccnc4N)nc4ccc(-c5cccc(N6CCN(C)CC6)c5)nc43)ccc21` [Compound 269], the IC50 amounted to 3.21 nM on AKT1 WT (setting [2]) and 9.39 nM at AKT2 (setting [2]).

The record behind these values is US12624034B2, “Non-covalent modifiers of AKT1 and uses thereof” (Terremoto Biosciences, Inc., priority 2023, dated 2026).
